According to US8729034B2, “Pharmaceutical composition having virucidal and spermicidal activity” (priority 2007, dated 2014):

Experiments:
human spermatozoa [1] = conditions: cited from earlier work
mouse spermatozoa = test: Sander & Cramer spermicidal assay (in vitro); assay type: cell-based; conditions: Mouse spermatozoa (N = 10); all immobilized within 20 seconds
Protocol: (§1) Sexually mature male mice and rats were autopsied following euthanasia by an overdose of Ketamin (≧200 mg/kg body weight; injected i.p.) and their cauda epididymis were excised. Working suspension of animal spermatozoa was prepared with the exudates obtained after careful pricking of the cauda epididymis with an injection needle (18 G) and the exudates were collected in a conical centrifuge tube.
(§2) The exudates/liquefied human semen samples were suspended in BWW medium (pre equilibrated at 37 degree C.). The spermatozoa with forward motility were separated from immotile or sluggishly motile cells by the swim-up technique and were allowed to disperse evenly within a CO2 incubator at 37 degree C. At least five aliquots from each sample was used to prepare the working spermatozoa suspension. The swim up procedure was as follows:
(§3) Pre equilibrated BWW medium (1.25 ml) was gently layered over cauda-exudates or liquefied human semen (1 ml) in a sterile 15 ml conical-based centrifuge tube. The tube was inclined at an angle of 45 degree and incubated for 1 hour at 37 degree C. in a CO2-incubator. It was then gently returned to the upright position and the uppermost 1 ml medium with a turbid appearance was removed. This aliquot of motile cells was pooled from each set, then diluted with same volumes of pre equilibrated BWW medium, centrifuged at 500 g for 5 minutes and finally resuspended in 1 ml pre equilibrated BWW medium to obtain a working suspension. The sperm cells were counted in a Makler chamber (Zygotec Systems, Springfield, M A, USA) and finally a working spermatozoa suspension having concentration of 25 to 30×10^6 cells/ml was prepared.
(§4) For in vitro assay of spermicidal effect, sperms collected from proven male rats and mice, and motile spermatozoa from liquefied human semen were used.
(§5) The assay was done following the Sander & Cramer assay method. Two hundred micro liter (200 microliters) of working spermatozoa suspension was added to 1 ml solution of test material in BWW medium and mixed on a light vortex for 10 seconds. A wet mount was immediately prepared on a clean microscopy glass slide and examined (at ×100) under a phase contrast microscope (Leitz, Biomed). The weakest concentration that immobilized all spermatozoa within 20 seconds of mixing was recorded as MEC. At least five fields were examined for each wet mount preparation. The observation was repeated with five individual spermatozoa suspension for each concentration of test compound solution. For negative control, saponin solutions were replaced by equal volume of BWW medium, while Nonoxynol 9 was used as positive control.

rat spermatozoa = test: Sander & Cramer spermicidal assay (in vitro); assay type: cell-based; conditions: Rat spermatozoa (N = 10); all immobilized within 20 seconds
Protocol: as §1, §2, §3, §4, §5

human spermatozoa [2] = test: Sander & Cramer spermicidal assay (in vitro); assay type: cell-based; conditions: Human spermatozoa (N = 5); weakest concentration immobilizing all spermatozoa within 20 seconds
Protocol: as §2, §3, §4, §5

[3] = tested on: Salmonella typhimurium TA100; test: Bacterial reverse mutation assay (MUTA-CHROMOPLATE kit); conditions: Background = 20, Blank = 0
From the text: Ac-B was examined for its ability to produce mutations/revert mutations in a bacterial reverse mutation assay using amino acid-requiring strain of Salmonella typhimurium (S. typhimurium) TA100 and the result was compared with a known mutagen (Na-azide). A commercial kit (The MUTA-CHROMOPLATE) from M/s Environmental Biodetection Products Inc. Ontario, Canada, was used. Suspensions of bacterial cells were exposed to the test substance in the presence and in the absence of an exogenous metabolic activation system. After 5 days of incubation, revertant colonies were detected by the change of colour from blue to yellow on solvent control plates. All yellow, partially yellow or turbid wells were scored as positive, while all purple wells were scored as negative. Number of positive wells for each plate was recorded, their number was counted and compared to that of spontaneous revertant colonies. The “Background” (i.e. no test material added) plate was used as reference for the level of spontaneous or background mutation of the assay organism. The statistical difference was determined using a table provided with the kit.
Score of mutagenicity as per the set criteria of Muta-Chromoplate test kit.

Compound | MEC for N-9 (human spermatozoa [1]; closest prior arts) | MEC of N-9 for spermicidal action (human spermatozoa [1]; comparison value in concluding remarks) | MEC as per Sander and Cramer Test (mouse spermatozoa) | MEC as per Sander and Cramer Test (rat spermatozoa) | MEC as per Sander and Cramer Test (human spermatozoa [2]) [microgram per ml] | No. of '+' wells (Muta-Chromoplate score) [3]
isononyl-phenyl-polyoxyethylene (9) ether [Nonoxynol 9, reference compound] | 200-500 microgram per ml | 200-500 microgram | 350 (±10) microgram per ml | 350 (±10) microgram per ml | >350 | 
[N-]=[N+]=[N-].[Na+] [Na-azide, reference compound] |  |  |  |  |  | 74
